# Test results as given in patent US11116760B2 (Gilead Sciences, Inc., priority 2018, dated 2021).
# Target: α4β7 integrin (Homo sapiens (Human), UniProt P13612+P26010)
# Assay: α4β7 Integrin Cell Capture Assay
# Type: cell-based
# Conditions: RPMI8866 cells captured on MadCAM-1 extracellular domain-coated plate
# α4β7 integrin, sequence (P13612 34-1032): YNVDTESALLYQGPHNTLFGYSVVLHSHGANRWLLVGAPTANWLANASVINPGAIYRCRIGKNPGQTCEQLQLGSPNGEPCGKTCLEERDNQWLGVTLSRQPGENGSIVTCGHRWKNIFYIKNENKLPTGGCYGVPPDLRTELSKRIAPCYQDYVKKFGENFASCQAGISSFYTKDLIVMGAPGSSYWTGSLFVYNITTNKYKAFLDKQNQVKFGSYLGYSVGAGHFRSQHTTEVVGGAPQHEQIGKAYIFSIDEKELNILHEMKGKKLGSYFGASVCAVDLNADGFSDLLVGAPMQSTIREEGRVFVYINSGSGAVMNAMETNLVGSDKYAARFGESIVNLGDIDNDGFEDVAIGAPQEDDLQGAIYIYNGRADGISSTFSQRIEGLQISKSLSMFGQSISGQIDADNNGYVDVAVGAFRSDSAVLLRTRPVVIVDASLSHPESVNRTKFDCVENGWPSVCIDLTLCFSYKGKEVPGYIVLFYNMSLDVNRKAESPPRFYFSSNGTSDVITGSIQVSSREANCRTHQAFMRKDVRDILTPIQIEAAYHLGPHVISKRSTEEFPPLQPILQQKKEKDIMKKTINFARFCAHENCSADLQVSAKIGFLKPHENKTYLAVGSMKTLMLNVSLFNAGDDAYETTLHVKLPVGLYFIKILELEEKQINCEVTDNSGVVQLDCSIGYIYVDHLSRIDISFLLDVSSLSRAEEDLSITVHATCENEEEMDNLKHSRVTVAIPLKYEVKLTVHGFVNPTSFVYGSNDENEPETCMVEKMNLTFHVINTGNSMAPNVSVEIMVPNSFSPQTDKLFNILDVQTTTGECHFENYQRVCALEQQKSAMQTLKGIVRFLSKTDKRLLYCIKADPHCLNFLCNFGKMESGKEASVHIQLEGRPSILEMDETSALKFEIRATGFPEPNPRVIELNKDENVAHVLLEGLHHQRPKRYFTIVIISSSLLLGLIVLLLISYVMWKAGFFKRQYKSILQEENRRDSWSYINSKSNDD
# α4β7 integrin, sequence (P26010 20-798): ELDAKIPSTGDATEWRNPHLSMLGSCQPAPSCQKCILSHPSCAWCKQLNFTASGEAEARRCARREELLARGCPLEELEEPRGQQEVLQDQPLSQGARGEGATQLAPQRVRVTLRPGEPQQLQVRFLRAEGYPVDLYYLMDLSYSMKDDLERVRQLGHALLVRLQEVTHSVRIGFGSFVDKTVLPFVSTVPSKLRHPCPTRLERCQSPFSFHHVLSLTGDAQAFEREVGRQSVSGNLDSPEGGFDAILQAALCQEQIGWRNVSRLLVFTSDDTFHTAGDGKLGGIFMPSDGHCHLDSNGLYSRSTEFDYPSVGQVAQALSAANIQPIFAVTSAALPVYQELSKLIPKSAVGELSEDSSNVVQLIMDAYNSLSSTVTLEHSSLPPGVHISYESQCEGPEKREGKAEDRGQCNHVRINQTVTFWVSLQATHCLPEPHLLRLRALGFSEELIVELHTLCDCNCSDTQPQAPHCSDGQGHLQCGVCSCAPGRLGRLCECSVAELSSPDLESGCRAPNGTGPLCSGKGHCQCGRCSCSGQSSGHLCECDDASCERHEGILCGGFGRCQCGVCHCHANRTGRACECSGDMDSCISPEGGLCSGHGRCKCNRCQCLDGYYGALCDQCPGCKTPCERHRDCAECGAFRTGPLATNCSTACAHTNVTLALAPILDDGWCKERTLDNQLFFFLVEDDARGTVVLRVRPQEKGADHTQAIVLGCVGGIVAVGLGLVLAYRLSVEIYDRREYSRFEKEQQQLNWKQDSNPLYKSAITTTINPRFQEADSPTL
row,Compound,EC50
1,"Cc1cc(N2CCOC[C@@H]2C(F)(F)F)cc(F)c1C(=O)N[C@@H](Cc1ccc(-n2c(=O)c3ccncc3n(C)c2=O)c2ncccc12)C(=O)O [Example 356, (S)-2-(2-fluoro-6-methyl-4-((R)-3-(trifluoromethyl)morpholino)benzamido)-3-(8-(1-methyl-2,4-dioxo-1,4-dihydropyrido[3,4-d]pyrimidin-3(2H)-yl)quinolin-5-yl)propanoic acid]",0.05 nM
2,"Cc1cc(N2CCOC[C@@H]2C(F)(F)F)cc(F)c1C(=O)N[C@@H](Cc1ccc(-n2c(=O)c3ncccc3n(C)c2=O)c2ncccc12)C(=O)O [Example 399, (S)-2-(2-fluoro-6-methyl-4-((R)-3-(trifluoromethyl)morpholino)benzamido)-3-(8-(1-methyl-2,4-dioxo-1,4-dihydropyrido[3,2-d]pyrimidin-3(2H)-yl)quinolin-5-yl)propanoic acid]",0.1 nM
3,"Cc1cc(N2CCOC[C@@H]2C(F)(F)F)cc(F)c1C(=O)N[C@@H](Cc1ccc(-n2c(=O)c3nccnc3n(C)c2=O)c2ncccc12)C(=O)O [Example 404, (S)-2-(2-fluoro-6-methyl-4-((R)-3-(trifluoromethyl)morpholino)benzamido)-3-(8-(1-methyl-2,4-dioxo-1,4-dihydropteridin-3(2H)-yl)quinolin-5-yl)propanoic acid]",0.1 nM

# Same assay, conditions: Table 2; capture of α4β7 expressing RPM18866 cells on MadCAM-1 extracellular domain-coated plate
row,Compound,EC50
1,CC[C@@H](Nc1cc(F)c(C(=O)N[C@@H](Cc2ccc(-c3ncc(C)cc3Cl)c3ncccc23)C(=O)O)c(F)c1)C(F)(F)F [Example 327],19.3 nM
2,CCOCc1cc(OC)c(-c2ccc(C[C@H](NC(=O)c3c(F)cc(NC(C)=O)cc3F)C(=O)O)c3cccnc23)c(OC)c1 [Example 329],20.1 nM
3,N#Cc1ccc(-c2ccc(C[C@H](NC(=O)c3c(F)cc(N[C@H](c4ccc(F)cc4)C(F)(F)F)cc3F)C(=O)O)c3cccnc23)c(Cl)c1 [Example 331],22.9 nM
4,N#Cc1ccc(-c2ccc(C[C@H](NC(=O)c3c(F)cc(NCC(F)(F)F)cc3F)C(=O)O)c3cccnc23)c(Cl)c1 [Example 332],23.7 nM
5,N#Cc1ccc(-c2ccc(C[C@H](NC(=O)c3c(F)cc(N[C@H](C4CCC4)C(F)(F)F)cc3F)C(=O)O)c3cccnc23)c(Cl)c1 [Example 333],24.1 nM
6,N#Cc1ccc(-c2ccc(C[C@H](NC(=O)c3c(F)cc(N[C@H](c4cccc(F)c4)C(F)(F)F)cc3F)C(=O)O)c3cccnc23)c(Cl)c1 [Example 334],24.2 nM
7,CCOCc1cc(OC)c(-c2ccc(C[C@H](NC(=O)c3c(F)cc4[nH]c(Cc5ccccc5)cc4c3F)C(=O)O)c3cccnc23)c(OC)c1 [Example 335],25.1 nM
8,O=C(N[C@@H](Cc1ccc(Nc2nccc3ccncc23)c2ncccc12)C(=O)O)c1c(Cl)cccc1Cl [Example 336],26.1 nM
9,N#Cc1ccc(-c2ccc(C[C@H](NC(=O)c3c(F)cc(NC(=O)c4ccccc4C(F)(F)F)cc3F)C(=O)O)c3cccnc23)c(Cl)c1 [Example 337],26.2 nM
10,CCCN(c1cc(F)c(C(=O)N[C@@H](Cc2ccc(-c3c(C(F)(F)F)cc(C)n(C)c3=O)c3ncccc23)C(=O)O)c(F)c1)[C@H](CC)C(F)(F)F [Example 339],0.6 nM
11,Cc1c(-c2ccc(C[C@H](NC(=O)c3c(F)cc(N[C@H](C)C(F)(F)F)cc3F)C(=O)O)c3cccnc23)c(=O)n(C)c(=O)n1C [Example 340],0.6 nM
12,CC[C@@H](Nc1cc(F)c(C(=O)N[C@@H](Cc2ccc(-c3c(OC)cc(C)n(C)c3=O)c3ncccc23)C(=O)O)c(F)c1)C(F)(F)F [Example 341],0.6 nM
13,Cc1cc(C)n(C)c(=O)c1-c1ccc(C[C@H](NC(=O)c2c(F)cc(N[C@H](C3CC3)C(F)(F)F)cc2F)C(=O)O)c2cccnc12 [Example 342],0.7 nM
14,CC[C@@H](Nc1cc(F)c(C(=O)N[C@@H](Cc2ccc(-c3c(Cl)cc(C)n(C)c3=O)c3ncccc23)C(=O)O)c(F)c1)C(F)(F)F [Example 343],0.7 nM
15,CC[C@@H](Nc1cc(F)c(C(=O)N[C@@H](Cc2ccc(-c3c(C)cc(C)n(C)c3=O)c3ncccc23)C(=O)O)c(F)c1)C(F)(F)F [Example 345],0.8 nM
